According to patent US20040157799A1, “Pharmaceutical uses of bisphosphonates” (priority 2004, published 2004):

Legend:
[1] = test system: prostate cancer patients with a history of metastatic bone disease; test: double-blind, placebo-controlled clinical study of zoledronic acid: skeletal-related events; format: in vivo, human; details: for patients with at least one skeletal-related event: i.v. every 3 weeks, placebo 44.2% (N=208); for patients with pathologic fractures: placebo 22.1%; for median time to the first skeletal-related event: placebo 320 days
Source text: Skeletal-related events (SREs) are defined as pathologic bone fracture events, spinal cord compression events, surgery to bone, radiation therapy to bone (including the use of radioisotopes) and a change of antineoplastic therapy to treat bone pain. Thus, SREs are the primary end-points in this study. The key efficacy endpoints are the proportion of patients having at least one SRE and the time to first SRE.
Secondary objectives are to assess the effect of zoledronic acid therapy on pain scores, analgesic use, performance status, Quality of Life scores, time to termination of active study participation, and to assess the safety and tolerability of zoledronate. Changes in bone resorption and formation markers are also evaluated. Bone mineral density measurements are evaluated in patients at selected clinical centers. In addition, time to progression of disease in bone and time to overall progression of disease are evaluated.
This study is an international, multicenter, randomized, double-blind, placebo-controlled, parallel study. […] The rising serum PSA level is documented by three consecutively rising serum PSA measurements (i.e., the third PSA level is to be>the second PSA level which is >the first PSA level which is >the nadir serum PSA concentration achieved during first-line hormonal therapy for metastatic prostate cancer), each separated from the other by at least two weeks. The rising serum PSA level represents an “early” event in the development of progressive metastatic disease.
Patients are randomized in a double-blind fashion to receive either zoledronate 4 mg intravenously, or zoledronate 8 mg intravenously, or a placebo intravenous infusion every three weeks in addition to their antineoplastic therapy. The randomized treatment assignment ratio is to be 1:1:1. In addition, all patients are to receive 500 mg of calcium orally and a multivitamin tablet (containing 400-500 I.U. of vitamin D) daily throughout the study.
The occurrence of skeletal-related events (SRE's) is collected throughout the trial for each patient in order to determine the proportion of patients experiencing at least one SRE, the time to the first SRE, and the skeletal morbidity rate (see section 4). Time to progression of disease in bone is assessed centrally (central radiologist) by review of serial bone radiographic studies. Time to overall progression of disease is determined by the patient's treating physician: by evaluating the central assessments (central radiologist) of serial bone radiographic studies; by evaluating the central assessments (central radiologist) of appropriate serial radiographic studies of non-skeletal tumor sites, if present; by evaluating serial serum PSA levels; and by evaluating serial patient weight measurements. Quality of Life, performance status, health care utilization and productivity loss data, and pain, and analgesic use scores are determined serially throughout the study. This information is also collected for those patients who discontinue active therapy within 24 months from the date of randomization into the study. Information about adverse events which occur during the patient's clinical course is collected throughout the study.
The study is made up of two phases, phase 1, the Efficacy and Safety Phase, and phase 2, the Extension Phase. The primary efficacy analysis is performed at the completion of phase 1, the Efficacy and Safety Phase, which consists of 60 weeks (20 cycles) of study treatment. Phase 2 consists of an additional 36 weeks (12 cycles) of study therapy. The primary purpose of phase 2 is to obtain long-term zoledronate treatment safety and survival data, however efficacy data will continue to be collected. […] No interim analyses are planned. […]

[2] = test system: subcutaneous prostate cancer cell line tumours; details: subcutaneous prostate cancer cell line tumours (Corey et al.); cited from earlier work
[3] = test system: prostate cancer cell lines; details: in vitro treatment (Brown et al.; Lee et al.); cited from earlier work

O=P(O)(O)C(O)(Cn1ccnc1)P(=O)(O)O [zoledronic acid, 2-(imidazol-1yl)-1-hydroxyethane-1,1-diphosphonic acid]
effect on skeletal-related events ([1]; 4 mg 15-minute infusions every 3 weeks, metastatic prostate cancer refractory to hormonal therapy): significantly reduce skeletal-related events
tolerability ([1]; 4 mg given as a 15-minute infusion): well-tolerated
efficacy in the treatment of bone metastases vs. placebo ([1]; prostate cancer patients, double blind, placebo-controlled): statistically significant efficacy benefit over placebo
patients with at least one skeletal-related event ([1]; zoledronic acid 4 mg group (N=214), p=0.021 vs. placebo): 33.2%
patients with pathologic fractures ([1]; zoledronic acid 4 mg group, p=0.015 vs. placebo): 13.1%
median time to the first skeletal-related event ([1]; zoledronic acid 4 mg group, p=0.011 vs. placebo): not reached
patients with at least one skeletal-related event ([1]; zoledronic acid 8/4 mg group (N=221), p=0.222 vs. placebo): 38.5%
patients with pathologic fractures ([1]; zoledronic acid 8/4 mg group, p=0.054 vs. placebo): 14.9%
median time to the first skeletal-related event ([1]; zoledronic acid 8/4 mg group, p=0.491 vs. placebo): 363 days
tumour volume [2]: no significant decrease in tumour volume
growth of prostate cancer cell lines [3]: significantly reduced the growth of the cell lines
